Results: patent US20240336654A1, “ANTIMICROBIAL PEPTIDOMIMETICS” (SPEXIS AG, priority 2021, published 2024)
Where a SMILES comes first, the peptide text is derived from it. Bridges are numbered along the chain shown (N, C = ends). [ ]: non-standard residue; d: D form. Pro(trans-4-F) = O=C(O)[C@@H]1C[C@@H](F)CN1; Pro(cis-4-F) = O=C(O)[C@@H]1C[C@H](F)CN1; Pro(4,4-F2) = O=C(O)[C@@H]1CC(F)(F)CN1; Hyp = O=C(O)[C@@H]1C[C@@H](O)CN1; Pen = CC(C)(S)[C@H](N)C(=O)O; Tle = CC(C)(C)[C@H](N)C(=O)O; dDab = NCC[C@@H](N)C(=O)O; Dab = NCC[C@H](N)C(=O)O; Abu = CC[C@H](N)C(=O)O

Tests used:
Type in all cases: cell-based
[1] = tested on: Klebsiella pneumoniae SSI3010; settings: SSI3010
Experimental: (§1) Lyophilized peptides were weighed on a Microbalance (Mettler MT5) and dissolved in sterile water to a final concentration of 1 mg/mL. Stock solutions were kept at +4° C., light protected.
(§2) The selective antimicrobial activities of the peptides were determined in 96-well plates (Greiner, polystyrene) by the standard CLSI broth microdilution method (Clinical and Laboratory Standards Institute. Methods for Dilution Antimicrobial Susceptibility Tests for Bacteria That Grow Aerobically; Approved Standard-Ninth Edition. CLSI document M07-A9 (ISBN 1-56238-783-9 [Print]; ISBN 1-56238-784-7 [Electronic]). Clinical and Laboratory Standards Institute, 950 West Valley Road, Suite 2500, Wayne, Pennsylvania 19087, USA, 2012) with slight modifications.
(§3) Colonies of the microorganisms were diluted in saline (0.85%, NaCl) and adjusted using a McFarland reader (bioMérieux SA, Marcy-l'Etoile, France) to 0.5 McFarland standard. Subsequently, the bacterial suspension was diluted in Mueller-Hinton II (MHII, cation adjusted) broth to give approximately 5×10^5 colony forming units (CFU/mL).
(§4) Inocula of the microorganisms were diluted into Mueller-Hinton II (MH, cation adjusted) broth and compared with a 0.5 McFarland standard to give appr. 10^6 colony forming units (CFU)/mL. Aliquots (90 μl) of inoculate were added to 10 μl of water+P-80 (Polysorbate 80, 0.002% final concentration) containing the peptide in serial two-fold dilutions at 10 fold final concentration. The following microorganisms were used to determine antibiotic selectivity of the peptides: Escherichia coli ATCC 25922, Escherichia coli MCR-1 Af 45 and Klebsiella pneumoniae SSI3010. Antimicrobial activities of the peptides were expressed as the minimal inhibitory concentration (MIC) in μg/mL at which no visible growth was observed after 18-20 hours of incubation at 35° C.

[2] = tested on: Escherichia coli ATCC 25922; settings: ATCC 25922
Experimental: as §1, §2, §3, §4

[3] = tested on: Escherichia coli MCR-1 Af 45; settings: MCR-1 Af 45
Experimental: as §1, §2, §3, §4

[4] = tested on: human red blood cells (hRBC); settings: red cells of human, 1 h, 200 μg/mL
Experimental: Lyophilized peptides were weighed on a Microbalance (Mettler MT5) and dissolved in sterile water to a final concentration of 1 mg/mL. Stock solutions were kept at +4° C., light protected. The peptides were tested for their hemolytic activity against human red blood cells (hRBC). Fresh hRBC were washed three times with phosphate buffered saline (PBS) and centrifuged for 5 min at 3000×g. Compounds (200 μg/mL) were incubated with 20% hRBC (v/v) for 1 h at 37° C. and shaking at 300 rpm. A value of 0% and 100% cell lyses, respectively, was determined by incubation of hRBC in the presence of PBS and 2.5% Triton X-100 in H2O, respectively. The samples were centrifuged, the supernatants were 8-fold diluted in PBS buffer and the optical densities (OD) were measured at 540 nm. The 100% lyses value (OD540H2O) gave an OD540 of approximately 0.5-1.0. Percent hemolysis was calculated as follows: (OD540peptide/OD540H2O)×100%.

Compound	Klebsiella pneumoniae SSI3010 MIC [1] [µg/mL]	Escherichia coli ATCC 25922 MIC [2] [µg/mL]	Escherichia coli MCR-1 Af45 MIC [3] [µg/mL]	Hemolysis at 0.2 g/L [4] [%]
CC[C@H](C)[C@H](NC(=O)[C@@H]1CCCN1C(=O)[C@@H](N)C(C)C)C(=O)N[C@@H]1C(=O)N[C@@H](Cc2ccc(O)cc2)C(=O)N[C@@H]([C@@H](C)O)C(=O)N[C@@H](CC(N)=O)C(=O)N[C@@H](CCCNC(=N)N)C(=O)N[C@@H](CCN)C(=O)N[C@@H]([C@@H](C)O)C(=O)N[C@H](CCN)C(=O)N[C@@H](CCCCN)C(=O)N[C@@H](CCN)C(=O)N[C@@H](CCN)C(=O)N[C@H](C(=O)N[C@@H](Cc2ccc(O)cc2)C(=O)O)CSSC1(C)C [Example 5, Val-Pro-Ile-Pen-Tyr-Thr-Asn-Arg-Dab-Thr-^DDab-Lys-Dab-Dab-Cys-Tyr] (H-VPI[Pen]YTNR[Dab]T[dDab]K[Dab][Dab]CY-OH; disulfide 4-15)	0.25	0.125	0.0625	<1
CC[C@H](C)[C@H](NC(=O)[C@@H]1C[C@@H](OC)CN1C(=O)[C@@H](N)C(C)C)C(=O)N[C@@H]1C(=O)N[C@@H](Cc2ccc(O)cc2)C(=O)N[C@@H]([C@@H](C)O)C(=O)N[C@@H](CC(N)=O)C(=O)N[C@@H](CCCNC(=N)N)C(=O)N[C@@H](CCN)C(=O)N[C@@H]([C@@H](C)O)C(=O)N[C@H](CCN)C(=O)N[C@@H](CCCCN)C(=O)N[C@@H](CCN)C(=O)N[C@@H](CCN)C(=O)N[C@H](C(=O)N[C@@H](Cc2ccc(O)cc2)C(=O)O)CSSC1(C)C [Example 6, Val-Pro((4R)OMe)-Ile-Pen-Tyr-Thr-Asn-Arg-Dab-Thr-^DDab-Lys-Dab-Dab-Cys-Tyr] (H-V[Hyp](Me)I[Pen]YTNR[Dab]T[dDab]K[Dab][Dab]CY-OH; disulfide 4-15)	0.25	0.125	0.125	<1
CC[C@H](C)[C@H](NC(=O)[C@@H]1C[C@H](F)CN1C(=O)[C@@H](N)C(C)C)C(=O)N[C@@H]1C(=O)N[C@@H](Cc2ccc(O)cc2)C(=O)N[C@@H]([C@@H](C)O)C(=O)N[C@@H](CC(N)=O)C(=O)N[C@@H](CCCNC(=N)N)C(=O)N[C@@H](CCN)C(=O)N[C@@H]([C@@H](C)O)C(=O)N[C@H](CCN)C(=O)N[C@@H](CCCCN)C(=O)N[C@@H](CCN)C(=O)N[C@@H](CCN)C(=O)N[C@H](C(=O)N[C@@H](Cc2ccc(O)cc2)C(=O)O)CSSC1(C)C [Example 7, Val-Pro((4S)F)-Ile-Pen-Tyr-Thr-Asn-Arg-Dab-Thr-^DDab-Lys-Dab-Dab-Cys-Tyr] (H-V[Pro(cis-4-F)]I[Pen]YTNR[Dab]T[dDab]K[Dab][Dab]CY-OH; disulfide 4-15)	0.25	0.125	0.125	<1
CC[C@H](C)[C@H](NC(=O)[C@@H]1C[C@@H](F)CN1C(=O)[C@@H](N)C(C)C)C(=O)N[C@@H]1C(=O)N[C@@H](Cc2ccc(O)cc2)C(=O)N[C@@H]([C@@H](C)O)C(=O)N[C@@H](CC(N)=O)C(=O)N[C@@H](CCCNC(=N)N)C(=O)N[C@@H](CCN)C(=O)N[C@@H]([C@@H](C)O)C(=O)N[C@H](CCN)C(=O)N[C@@H](CCCCN)C(=O)N[C@@H](CCN)C(=O)N[C@@H](CCN)C(=O)N[C@H](C(=O)N[C@@H](Cc2ccc(O)cc2)C(=O)O)CSSC1(C)C [Example 8, Val-Pro((4R)F)-Ile-Pen-Tyr-Thr-Asn-Arg-Dab-Thr-^DDab-Lys-Dab-Dab-Cys-Tyr] (H-V[Pro(trans-4-F)]I[Pen]YTNR[Dab]T[dDab]K[Dab][Dab]CY-OH; disulfide 4-15)	0.25	0.125	0.0625	<1
CC[C@H](C)[C@H](NC(=O)[C@@H]1CC(F)(F)CN1C(=O)[C@@H](N)C(C)C)C(=O)N[C@@H]1C(=O)N[C@@H](Cc2ccc(O)cc2)C(=O)N[C@@H]([C@@H](C)O)C(=O)N[C@@H](CC(N)=O)C(=O)N[C@@H](CCCNC(=N)N)C(=O)N[C@@H](CCN)C(=O)N[C@@H]([C@@H](C)O)C(=O)N[C@H](CCN)C(=O)N[C@@H](CCCCN)C(=O)N[C@@H](CCN)C(=O)N[C@@H](CCN)C(=O)N[C@H](C(=O)N[C@@H](Cc2ccc(O)cc2)C(=O)O)CSSC1(C)C [Example 9, Val-Pro(4,4F2)-Ile-Pen-Tyr-Thr-Asn-Arg-Dab-Thr-^DDab-Lys-Dab-Dab-Cys-Tyr] (H-V[Pro(4,4-F2)]I[Pen]YTNR[Dab]T[dDab]K[Dab][Dab]CY-OH; disulfide 4-15)	0.25	0.125	0.0625	<1

Now from value to compound, other results behind:

Klebsiella pneumoniae SSI3010 MIC [1] [µg/mL]	Escherichia coli ATCC 25922 MIC [2] [µg/mL]	Escherichia coli MCR-1 Af45 MIC [3] [µg/mL]	Compound	Hemolysis at 0.2 g/L [4] [%]
0.25	0.125	0.03125	CC[C@H](C)[C@H](NC(=O)[C@@H]1C[C@@H](O)CN1C(=O)[C@@H](N)C(C)C)C(=O)N[C@@H]1C(=O)N[C@@H](Cc2ccc(O)cc2)C(=O)N[C@@H](CO)C(=O)N[C@@H](CC(N)=O)C(=O)N[C@@H](CCCNC(=N)N)C(=O)N[C@@H](CCN)C(=O)N[C@@H]([C@@H](C)O)C(=O)N[C@H](CCN)C(=O)N[C@@H](CCCCN)C(=O)N[C@@H](CCN)C(=O)N[C@@H](CCN)C(=O)N[C@H](C(=O)N[C@@H](Cc2ccc(O)cc2)C(=O)O)CSSC1(C)C [Example 1, Val-Hyp-Ile-Pen-Tyr-Ser-Asn-Arg-Dab-Thr-^DDab-Lys-Dab-Dab-Cys-Tyr] (H-V[Hyp]I[Pen]YSNR[Dab]T[dDab]K[Dab][Dab]CY-OH; disulfide 4-15)	<1
0.25	0.25	0.125	CC[C@H](N)C(=O)N1C[C@H](O)C[C@H]1C(=O)N[C@H](C(=O)N[C@@H]1C(=O)N[C@@H](Cc2ccc(O)cc2)C(=O)N[C@@H](CO)C(=O)N[C@@H](CC(N)=O)C(=O)N[C@@H](CCCNC(=N)N)C(=O)N[C@@H](CCN)C(=O)N[C@@H]([C@@H](C)O)C(=O)N[C@H](CCN)C(=O)N[C@@H](CCCCN)C(=O)N[C@@H](CCN)C(=O)N[C@@H](CCN)C(=O)N[C@H](C(=O)N[C@@H](Cc2ccc(O)cc2)C(=O)O)CSSC1(C)C)[C@@H](C)CC [Example 2, Abu-Hyp-Ile-Pen-Tyr-Ser-Asn-Arg-Dab-Thr-^DDab-Lys-Dab-Dab-Cys-Tyr] (H-[Abu][Hyp]I[Pen]YSNR[Dab]T[dDab]K[Dab][Dab]CY-OH; disulfide 4-15)	<1
0.25	0.125	0.125	CC[C@H](C)[C@H](NC(=O)[C@@H]1C[C@@H](O)CN1C(=O)[C@@H](N)C(C)(C)C)C(=O)N[C@@H]1C(=O)N[C@@H](Cc2ccc(O)cc2)C(=O)N[C@@H](CO)C(=O)N[C@@H](CC(N)=O)C(=O)N[C@@H](CCCNC(=N)N)C(=O)N[C@@H](CCN)C(=O)N[C@@H]([C@@H](C)O)C(=O)N[C@H](CCN)C(=O)N[C@@H](CCCCN)C(=O)N[C@@H](CCN)C(=O)N[C@@H](CCN)C(=O)N[C@H](C(=O)N[C@@H](Cc2ccc(O)cc2)C(=O)O)CSSC1(C)C [Example 3, tBuGly-Hyp-Ile-Pen-Tyr-Ser-Asn-Arg-Dab-Thr-^DDab-Lys-Dab-Dab-Cys-Tyr] (H-[Tle][Hyp]I[Pen]YSNR[Dab]T[dDab]K[Dab][Dab]CY-OH; disulfide 4-15)	<1
0.125	0.0625	0.0625	CC[C@H](C)[C@H](NC(=O)[C@@H]1CCCN1C(=O)[C@@H](N)C(C)C)C(=O)N[C@@H]1C(=O)N[C@@H](Cc2ccc(O)cc2)C(=O)N[C@@H](CO)C(=O)N[C@@H](CC(N)=O)C(=O)N[C@@H](CCCNC(=N)N)C(=O)N[C@@H](CCN)C(=O)N[C@@H]([C@@H](C)O)C(=O)N[C@H](CCN)C(=O)N[C@@H](CCCCN)C(=O)N[C@@H](CCN)C(=O)N[C@@H](CCN)C(=O)N[C@H](C(=O)N[C@@H](Cc2ccc(O)cc2)C(=O)O)CSSC1(C)C [Example 4, Val-Pro-Ile-Pen-Tyr-Ser-Asn-Arg-Dab-Thr-^DDab-Lys-Dab-Dab-Cys-Tyr] (H-VPI[Pen]YSNR[Dab]T[dDab]K[Dab][Dab]CY-OH; disulfide 4-15)	<1
